*1 amine or outer side, *2 acyl side, *3 side chain or, on linkers, in order; H or OH if unused. Where a SMILES comes first, the peptide text is derived from it. [ ]: non-standard residue; d: D form. X1 = NS(=O)(=O)c1ccc(-c2cn(CCCC[C@H](N[*:1])C(=O)[*:2])nn2)cc1

Here are results for 1 molecule from patent US12486304B2, “Peptide ligand targeting carbonic anhydrase IX, peptide construct comprising same, and uses thereof” (priority 2022, dated 2025).

For this series the following is noted: human, 168 h.

Protocol: A solution of the peptide structure diluted to a final concentration of 50 μm in 1 mL of 100% pure human serum (Cat #S1, Merk) or plasma (Cat #70039.1, [sequence] Technologies) [or 100% pure mouse serum (Sigma, Cat #S7273) or plasma (Rockland, Cat #D508-06-0050)] was divided into 100 μL. Then, while stored at 37° C., analysis was performed once a day for 7 days using the LC-MS (1260 Infinity II, Infinity Lab LC/MSD, Aglient) equipped with the Agilent Poroshell 120 EC-C18 column (4.6×50 mm, 2.7 μm). Before injecting the sample into the LC, 100 μL of ACN was added to the serum or plasma solution containing the peptides, then put into the centrifuge and spun to settle the precipitate, and only 10 μL of the supernatant was used for analysis.

For `C[C@H](O)[C@H]1NC(=O)[C@@H](Cc2ccccc2)NC(=O)[C@@H](Cc2c[nH]cn2)NC(=O)[C@@H](Cc2ccccc2)NC(=O)[C@@H](CCCNC(=N)N)NC(=O)[C@@H](CCCNC(=N)N)NC(=O)[C@H](CCCCn2cc(-c3ccc(S(N)(=O)=O)cc3)nn2)NC(=O)[C@H](CCC(N)=O)NC(=O)CNC(=O)[C@@H](Cc2c[nH]cn2)NC1=O` [No. 35] (cyclo(Q[X1][dR][dR][dF][dH][dF][dT][dH]G)), the Stability in plasma entry is “not degraded at all and was completely maintained even after 6 days”.
